Reference: patent US4545991A, “Difficidin and derivative antibacterials” (Merck & Co., Inc., priority 1983, dated 1985)
Converted amounts (≈) assume the structure as drawn.

Legend:
[1] = tested on: B. thetaiotaomicron Clind^r; assay: MIC, in vitro agar dilution assay, anaerobic bacteria (Table III); type: cell-based; details: 10^6 CFU per spot
solubility = type: physicochemical; details: water, lower alcohols such as methanol and ethanol
[2] = tested on: C. difficile Clind^r, Fox^r; assay: MIC, in vitro agar dilution assay, anaerobic bacteria (Table III); type: cell-based; details: 10^6 CFU per spot
pH of aqueous solution = type: physicochemical
S. aureus = assay: MIC, in vitro agar dilution assay, aerobic bacteria (Table II); type: cell-based; details: 10^6 CFU per spot
Description: (§1) Further evaluations of the antibacterial spectrum of difficidin and oxydifficidin were undertaken, especially as compared to the antibacterial spectrum of the valuable antibiotic cefoxitin, which is well known for its wide spectrum of antibacterial activity. An in vitro agar dilution assay was used, inoculum 10^6 CFU per spot. Table II below illustrates the results obtained for various aerobic bacteria, and Table III illustrates the results obtained for various anaerobic bacteria.

Strep. faecalis = assay: as above; type: cell-based; details: 10^6 CFU per spot
Description: as §1

E. coli = assay: as above; type: cell-based; details: 10^6 CFU per spot
Description: as §1

Sal. typhimurium = assay: as above; type: cell-based; details: 10^6 CFU per spot
Ent. cloacae P99^+ = assay: as above; type: cell-based; details: Ent. cloacae P99^+; 10^6 CFU per spot
Ps. aeruginosa = assay: as above; type: cell-based; details: Ps. aeruginosa, first unmarked strain; 10^6 CFU per spot
B. ovatus Pen^r = assay: MIC, in vitro agar dilution assay, anaerobic bacteria (Table III); type: cell-based; details: 10^6 CFU per spot
Ent. aerogenes = assay: MIC, in vitro agar dilution assay, aerobic bacteria (Table II); type: cell-based; details: Ent. aerogenes; 10^6 CFU per spot
K. pneumoniae Kl^+ = assay: as above; type: cell-based; details: 10^6 CFU per spot
[3] = tested on: B. fragilis Clind^r Fox^r Tet^r; assay: MIC, in vitro agar dilution assay, anaerobic bacteria (Table III); type: cell-based; details: 10^6 CFU per spot
[4] = tested on: Bifidobacterium dentium Fox^r; assay: as above; type: cell-based; details: Bifidobacterium dentium Fox^r; 10^6 CFU per spot
aerobic microorganisms = assay: antibacterial activity against aerobic microorganisms, summary; type: cell-based; details: such as Pseudomonas aeruginosa and Staphyloccoccus aureus
[5] = tested on: B. distasonis Pen^r Fox^r; assay: MIC, in vitro agar dilution assay, anaerobic bacteria (Table III); type: cell-based; details: 10^6 CFU per spot
anaerobic bacteria = assay: antibacterial activity against anaerobic bacteria, summary; type: cell-based; details: wide spectrum of anaerobic bacteria
Prot. morganii Sm^R = assay: MIC, in vitro agar dilution assay, aerobic bacteria (Table II); type: cell-based; details: Prot. morganii Sm^R; 10^6 CFU per spot
[6] = tested on: B. distasonis Pen^r Fox^r Clind^r; assay: MIC, in vitro agar dilution assay, anaerobic bacteria (Table III); type: cell-based; details: 10^6 CFU per spot
[7] = decomposition during lyophilization; type: physicochemical; details: lyophilization of (IV) to (V)
Description: There is evidence that from 10-15% decomposition of oxydifficidin may have occurred during lyophilization of (IV) to (V). Based on the lyophilized weight of (V) and the UV analysis of (IV), A1 cm^1% (275 nm)--438 is calculated.

Question: Which MIC [1] does the source give for `C=CC=C(C)CCC1CC=CC=C(C)C(OP(=O)(O)O)CCCC=CC=CC=CCC(C)C(=C)CC(=O)O1` (stereo not drawn) [Difficidin, difficidin] here?
Answer: 0.25 µg/mL (≈ 0.459 µM)

Question: And the solubility (solubility)?
Answer: soluble in water, lower alcohols such as methanol and ethanol

Question: And the MIC [2]?
Answer: 0.125 µg/mL (≈ 0.229 µM)

Question: And the “pH of 0.1% by weight aqueous solution” value (pH of aqueous solution)?
Answer: 6.9

Question: And the MIC (S. aureus; first unmarked strain)?
Answer: 16.0 µg/mL (≈ 29.4 µM)

Question: What about the MIC (S. aureus; second unmarked strain) of the same compound?
Answer: 8.0 µg/mL (≈ 14.7 µM)

Question: And the MIC (Strep. faecalis)?
Answer: > 128.0 µg/mL

Question: And the MIC (E. coli)?
Answer: 8.0 µg/mL (≈ 14.7 µM)

Question: What about the MIC (Sal. typhimurium) of the same compound?
Answer: 8.0 µg/mL (≈ 14.7 µM)

Question: And the MIC (Ent. cloacae P99^+)?
Answer: 16.0 µg/mL (≈ 29.4 µM)

Question: And the MIC (Ps. aeruginosa)?
Answer: 8.0 µg/mL (≈ 14.7 µM)

Question: And the MIC (B. ovatus Pen^r)?
Answer: 0.125 µg/mL (≈ 0.229 µM)

Question: What about the MIC (Ent. aerogenes) of the same compound?
Answer: 8.0 µg/mL (≈ 14.7 µM)

Question: What about the MIC (K. pneumoniae Kl^+) of the same compound?
Answer: 8.0 µg/mL (≈ 14.7 µM)

Question: And the MIC [3]?
Answer: 0.25 µg/mL (≈ 0.459 µM)

Question: What about the MIC [4] of the same compound?
Answer: 32 µg/mL (≈ 58.8 µM)

Question: And the “potency against aerobic microorganisms relative to oxydifficidin” value (aerobic microorganisms)?
Answer: more potent than oxydifficidin

Question: What about the MIC [5] of the same compound?
Answer: > 128 µg/mL

Question: And the “activity against anaerobic bacteria” value (anaerobic bacteria)?
Answer: active against a wide spectrum of anaerobic bacteria

Question: And the MIC (Prot. morganii Sm^R)?
Answer: 2.0 µg/mL (≈ 3.67 µM)

Question: And the MIC [6]?
Answer: 0.06 µg/mL (≈ 0.11 µM)

Question: Which MIC [1] does the source give for `C=CC=C(C)CCC1CC=CC=C(C)C(OP(=O)(O)O)CCCC=CC=CC=CC(O)C(C)C(=C)CC(=O)O1` (stereo not drawn) [Oxydifficidin, oxydifficidin] here?
Answer: 0.25 µg/mL (≈ 0.446 µM)

Question: And the MIC [2]?
Answer: 0.06 µg/mL (≈ 0.107 µM)

Question: And the MIC (S. aureus; first unmarked strain)?
Answer: > 128.0 µg/mL

Question: What about the MIC (S. aureus; second unmarked strain) of the same compound?
Answer: 32.0 µg/mL (≈ 57.1 µM)

Question: What about the MIC (Strep. faecalis) of the same compound?
Answer: > 128.0 µg/mL

Question: And the MIC (E. coli)?
Answer: 4.0 µg/mL (≈ 7.13 µM)

Question: And the MIC (Sal. typhimurium)?
Answer: 32.0 µg/mL (≈ 57.1 µM)

Question: And the MIC (Ent. cloacae P99^+)?
Answer: 32.0 µg/mL (≈ 57.1 µM)

Question: What about the MIC (Ps. aeruginosa) of the same compound?
Answer: 32.0 µg/mL (≈ 57.1 µM)

Question: And the decomposition during lyophilization [7]?
Answer: 10-15%

Question: And the MIC (B. ovatus Pen^r)?
Answer: 0.25 µg/mL (≈ 0.446 µM)

Question: What about the MIC (Ent. aerogenes) of the same compound?
Answer: 32.0 µg/mL (≈ 57.1 µM)

Question: And the MIC (K. pneumoniae Kl^+)?
Answer: 8.0 µg/mL (≈ 14.3 µM)

Question: What about the MIC [3] of the same compound?
Answer: 0.25 µg/mL (≈ 0.446 µM)

Question: What about the MIC [5] of the same compound?
Answer: > 128 µg/mL

Question: And the “activity against anaerobic bacteria” value (anaerobic bacteria)?
Answer: active against a wide spectrum of anaerobic bacteria

Question: And the MIC (Prot. morganii Sm^R)?
Answer: 2.0 µg/mL (≈ 3.57 µM)

Question: And the MIC [6]?
Answer: 0.06 µg/mL (≈ 0.107 µM)
